Measurements from patent publication USRE43390E1, “Pleuromutilin derivatives as antimicrobials” (GlaxoSmithKline LLC, priority 1997, dated 2012).

What was measured:
Assay in all cases: antibacterial activity, MIC by standard broth dilution method in microtitre
Type in all cases: cell-based
Escherichla coli DCU = conditions: E.c. = Escherichla coli DCU
Experimental: (§1) The following Table illustrates the antibacterial activities of representative mutilin 14-esters. Activities are given as minimum inhibitory concentrations in micrograms per milliliter (10^−6 g/ml), and were determined using a standard broth dilution method in microtitre.

[1] = test system: Morazella catarrhalis Ravasio; conditions: M.c. = Morazella catarrhalis Ravasio
Experimental: as §1

[2] = test system: Streptococcus pneumoniae 1629; conditions: S.p. = Streptococcus pneumoniae 1629
Experimental: as §1

[3] = test system: Staphylococcus aureus Oxford; conditions: S.a. = Staphylococcus aureus Oxford
Experimental: as §1

[4] = test system: Haemophilius influenzae Q1; conditions: H.i. = Haemophilius influenzae Q1
Experimental: as §1

C=C[C@]1(C)C[C@@H](OC(=O)CSC23CCN(CC2)CC3)[C@]2(C)[C@H](C)CC[C@]3(CCC(=O)[C@H]32)[C@@H](C)[C@@H]1O [Example 1, Mutilin 14-(quinuclidin-4-yl-sulfanyl)-acetate]
minimum inhibitory concentrations (Escherichla coli DCU): 16 micrograms per milliliter
minimum inhibitory concentrations [1]: ≦0.06 micrograms per milliliter
minimum inhibitory concentrations [2]: ≦0.06 micrograms per milliliter
minimum inhibitory concentrations [3]: ≦0.06 micrograms per milliliter
minimum inhibitory concentrations [4]: 0.25 micrograms per milliliter

C=C[C@]1(C)C[C@@H](OC(=O)CSC2CCN(C)CC2)[C@]2(C)[C@H](C)CC[C@]3(CCC(=O)[C@H]32)[C@@H](C)[C@@H]1O [Example 15, Mutilin-14-(1-methylpiperid-4-ylsulfanyl)-acetate]
minimum inhibitory concentrations (Escherichla coli DCU): 64 micrograms per milliliter
minimum inhibitory concentrations [1]: ≦0.06 micrograms per milliliter
minimum inhibitory concentrations [2]: ≦0.06 micrograms per milliliter
minimum inhibitory concentrations [3]: ≦0.06 micrograms per milliliter
minimum inhibitory concentrations [4]: 0.5 micrograms per milliliter

C=C[C@]1(C)C[C@@H](OC(=O)CSC2CC3CCC(C2)N3C)[C@]2(C)C(C)CC[C@]3(CCC(=O)[C@H]32)[C@@H](C)[C@@H]1O (stereo partly drawn) [Example 50, Mutilin 14-(exo-8-methyl-8-azabicyclo[3.2.1]oct-3-ylsulfanyl)-acetate]
minimum inhibitory concentrations (Escherichla coli DCU): 32 micrograms per milliliter
minimum inhibitory concentrations [1]: ≦0.06 micrograms per milliliter
minimum inhibitory concentrations [2]: ≦0.06 micrograms per milliliter
minimum inhibitory concentrations [3]: ≦0.06 micrograms per milliliter
minimum inhibitory concentrations [4]: 0.5 micrograms per milliliter

C=C[C@]1(C)C[C@@H](OC(=O)CO)[C@]2(C)[C@H](C)CC[C@]3(CCC(=O)[C@H]32)[C@@H](C)[C@@H]1O [Pleuomutilin, Pleuromutilin]
minimum inhibitory concentrations (Escherichla coli DCU): >64 micrograms per milliliter
minimum inhibitory concentrations [1]: 0.5 micrograms per milliliter
minimum inhibitory concentrations [2]: 8 micrograms per milliliter
minimum inhibitory concentrations [3]: 2 micrograms per milliliter
minimum inhibitory concentrations [4]: 2 micrograms per milliliter

C=C[C@]1(C)C[C@@H](OC(=O)CSCCN(CC)CC)[C@]2(C)[C@H](C)CC[C@]3(CCC(=O)[C@H]32)[C@@H](C)[C@@H]1O [Tiamulia, Tiamulin, reference compound]
minimum inhibitory concentrations (Escherichla coli DCU): >64 micrograms per milliliter
minimum inhibitory concentrations [1]: 0.125 micrograms per milliliter
minimum inhibitory concentrations [2]: 0.25 micrograms per milliliter
minimum inhibitory concentrations [3]: 0.25 micrograms per milliliter
minimum inhibitory concentrations [4]: 2 micrograms per milliliter
